# Laboratory results taken from ChEMBL document CHEMBL1201862, “PubChem BioAssay data set” (2004).
# Counter-ions that a name gives are not always drawn.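 Compound exposure: 48 hours, 5 concentrations, 96-well plates. GI50: concentration for 50% inhibition of growth.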 Calls of active or inactive are those of the source. Cut-off read from the data, not from the text of the source: active = GI50 up to about 1.1 µM and inactive = higher.
# Experiments:
# Test in all cases: DTP human tumour cell line panel, 48 h
# UO-31 = test system: UO-31
# CCRF-CEM = test system: CCRF-CEM
# HOP-18 = test system: HOP-18
# A498 = test system: A498
# EKVX = test system: EKVX
# LXFL 529 = test system: LXFL 529
# SNB-78 = test system: SNB-78
# SK-MEL-5 = test system: SK-MEL-5
# SK-OV-3 = test system: SK-OV-3
# MOLT-4 = test system: MOLT-4
# SNB-75 = test system: SNB-75
# K562 = test system: K562
# 786-0 = test system: 786-0
# SK-MEL-28 = test system: SK-MEL-28
# HT-29 = test system: HT-29
# NCI-H226 = test system: NCI-H226
# IGROV-1 = test system: IGROV-1
# SN12C = test system: SN12C
# Malme-3M = test system: Malme-3M
# SF-268 = test system: SF-268
# U-251 = test system: U-251
# M14 = test system: M14
# NCI-H522 = test system: NCI-H522
# SR = test system: SR
# M19-MEL = test system: M19-MEL
# RPMI-8226 = test system: RPMI-8226
# COLO 205 = test system: COLO 205
# DMS-114 = test system: DMS-114
# SF-295 = test system: SF-295
# HOP-92 = test system: HOP-92
# OVCAR-4 = test system: OVCAR-4
# UACC-62 = test system: UACC-62
# HCT-116 = test system: HCT-116
# SW-620 = test system: SW-620
# OVCAR-8 = test system: OVCAR-8
# TK-10 = test system: TK-10
# OVCAR-5 = test system: OVCAR-5
# NCI-H460 = test system: NCI-H460
# OVCAR-3 = test system: OVCAR-3
# ACHN = test system: ACHN
# SF-539 = test system: SF-539
# SNB-19 = test system: SNB-19
# HCC 2998 = test system: HCC 2998
# KM12 = test system: KM12
# XF498 = test system: XF498
# HOP-62 = test system: HOP-62
# DMS-273 = test system: DMS-273
# SK-MEL-2 = test system: SK-MEL-2
# LOX IMVI = test system: LOX IMVI
# NCI-H23 = test system: NCI-H23
# A549 = test system: A549
# CAKI-1 = test system: CAKI-1
# UACC-257 = test system: UACC-257
# DLD-1 = test system: DLD-1
# KM-20L2 = test system: KM-20L2
# HL-60 = test system: HL-60
# HCT-15 = test system: HCT-15
# Hs-578T = test system: Hs-578T
# MDA-MB-231 = test system: MDA-MB-231
# T47D = test system: T47D
# PC-3 = test system: PC-3
# DU-145 = test system: DU-145
# MDA-MB-435 = test system: MDA-MB-435
# NCI/ADR-RES = test system: NCI/ADR-RES
# RXF 393 = test system: RXF 393
# BT-549 = test system: BT-549
# MCF7 = test system: MCF7
# MDA-N = test system: MDA-N
smiles,measurement,setting,value
CC12CC3CC(C)(C1)CC(N=[N+]=[N-])(C3)C2,GI50,UO-31,> 100 µM (inactive)
same,GI50,CCRF-CEM,> 100 µM (inactive)
same,GI50,HOP-18,> 100 µM (inactive)
same,GI50,A498,> 100 µM (inactive)
same,GI50,EKVX,> 100 µM (inactive)
same,GI50,LXFL 529,> 100 µM (inactive)
same,GI50,SNB-78,> 100 µM (inactive)
same,GI50,SK-MEL-5,> 100 µM (inactive)
same,GI50,SK-OV-3,> 100 µM (inactive)
same,GI50,MOLT-4,> 100 µM (inactive)
same,GI50,SNB-75,> 100 µM (inactive)
same,GI50,K562,> 100 µM (inactive)
same,GI50,786-0,> 100 µM (inactive)
same,GI50,SK-MEL-28,> 100 µM (inactive)
same,GI50,HT-29,> 100 µM (inactive)
same,GI50,NCI-H226,> 100 µM (inactive)
same,GI50,IGROV-1,> 100 µM (inactive)
same,GI50,SN12C,> 100 µM (inactive)
same,GI50,Malme-3M,> 100 µM (inactive)
same,GI50,SF-268,> 100 µM (inactive)
same,GI50,U-251,> 100 µM (inactive)
same,GI50,M14,> 100 µM (inactive)
same,GI50,NCI-H522,> 100 µM (inactive)
same,GI50,SR,> 100 µM (inactive)
same,GI50,M19-MEL,> 100 µM (inactive)
same,GI50,RPMI-8226,> 100 µM (inactive)
same,GI50,COLO 205,> 100 µM (inactive)
same,GI50,DMS-114,> 100 µM (inactive)
same,GI50,SF-295,> 100 µM (inactive)
same,GI50,HOP-92,> 100 µM (inactive)
same,GI50,OVCAR-4,> 100 µM (inactive)
same,GI50,UACC-62,> 100 µM (inactive)
same,GI50,HCT-116,> 100 µM (inactive)
same,GI50,SW-620,> 100 µM (inactive)
same,GI50,OVCAR-8,> 100 µM (inactive)
same,GI50,TK-10,> 100 µM (inactive)
same,GI50,OVCAR-5,> 100 µM (inactive)
same,GI50,NCI-H460,> 100 µM (inactive)
same,GI50,OVCAR-3,> 100 µM (inactive)
same,GI50,ACHN,> 100 µM (inactive)
same,GI50,SF-539,> 100 µM (inactive)
same,GI50,SNB-19,> 100 µM (inactive)
same,GI50,HCC 2998,> 100 µM (inactive)
same,GI50,KM12,> 100 µM (inactive)
same,GI50,XF498,> 100 µM (inactive)
same,GI50,HOP-62,> 100 µM (inactive)
same,GI50,DMS-273,> 100 µM (inactive)
same,GI50,SK-MEL-2,> 100 µM (inactive)
same,GI50,LOX IMVI,> 100 µM (inactive)
same,GI50,NCI-H23,> 100 µM (inactive)
same,GI50,A549,> 100 µM (inactive)
same,GI50,CAKI-1,> 100 µM (inactive)
same,GI50,UACC-257,> 100 µM (inactive)
same,GI50,DLD-1,> 100 µM (inactive)
CCOC1CC2OC(=O)C1C=C2C(=O)OC (configuration not stated),GI50,UO-31,35.7 µM (inactive)
same,GI50,CCRF-CEM,16.8 µM (inactive)
same,GI50,HOP-18,21.1 µM (inactive)
same,GI50,A498,> 100 µM (inactive)
same,GI50,EKVX,> 100 µM (inactive)
same,GI50,LXFL 529,15.5 µM (inactive)
same,GI50,SNB-78,37.2 µM (inactive)
same,GI50,SK-MEL-5,36.4 µM (inactive)
same,GI50,KM-20L2,55.6 µM (inactive)
same,GI50,SK-OV-3,> 100 µM (inactive)
same,GI50,MOLT-4,17.4 µM (inactive)
same,GI50,K562,25.8 µM (inactive)
same,GI50,786-0,29.2 µM (inactive)
same,GI50,HL-60,19.6 µM (inactive)
same,GI50,SK-MEL-28,21 µM (inactive)
same,GI50,HT-29,37.5 µM (inactive)
same,GI50,NCI-H226,32.7 µM (inactive)
same,GI50,IGROV-1,46.6 µM (inactive)
same,GI50,Malme-3M,20.5 µM (inactive)
same,GI50,SF-268,28.9 µM (inactive)
same,GI50,U-251,50.1 µM (inactive)
same,GI50,M14,18.5 µM (inactive)
same,GI50,NCI-H522,12 µM (inactive)
same,GI50,M19-MEL,37.2 µM (inactive)
same,GI50,RPMI-8226,14.7 µM (inactive)
same,GI50,COLO 205,19.1 µM (inactive)
same,GI50,DMS-114,20.4 µM (inactive)
same,GI50,SF-295,> 100 µM (inactive)
same,GI50,HOP-92,32.7 µM (inactive)
same,GI50,OVCAR-4,23.1 µM (inactive)
same,GI50,UACC-62,30.5 µM (inactive)
same,GI50,SW-620,21.9 µM (inactive)
same,GI50,TK-10,37.8 µM (inactive)
same,GI50,HCT-15,27.7 µM
same,GI50,OVCAR-5,> 100 µM (inactive)
same,GI50,NCI-H460,79.3 µM (inactive)
same,GI50,OVCAR-3,28.4 µM (inactive)
same,GI50,ACHN,27.8 µM (inactive)
same,GI50,SF-539,24.8 µM (inactive)
same,GI50,SNB-19,28 µM (inactive)
same,GI50,HCC 2998,> 100 µM (inactive)
same,GI50,KM12,54.5 µM (inactive)
same,GI50,XF498,23.6 µM (inactive)
same,GI50,HOP-62,> 100 µM (inactive)
same,GI50,SK-MEL-2,31.4 µM (inactive)
same,GI50,LOX IMVI,87.5 µM (inactive)
same,GI50,NCI-H23,17.9 µM (inactive)
same,GI50,A549,> 100 µM (inactive)
same,GI50,CAKI-1,22.3 µM (inactive)
same,GI50,UACC-257,27.7 µM (inactive)
same,GI50,DLD-1,23 µM (inactive)
CC(=O)N(C)c1ccc(Nc2cc(C)nc3ccc4nc[nH]c4c23)cc1 [ACODAZOLE HYDROCHLORIDE],GI50,UO-31,12.2 µM (inactive)
same,GI50,CCRF-CEM,3.01 µM (inactive)
same,GI50,HOP-18,12.4 µM (inactive)
same,GI50,A498,10.4 µM (inactive)
same,GI50,EKVX,18.7 µM (inactive)
same,GI50,Hs-578T,9.14 µM (inactive)
same,GI50,SNB-78,14.4 µM (inactive)
same,GI50,MDA-MB-231,13.6 µM (inactive)
same,GI50,SK-MEL-5,7.28 µM (inactive)
same,GI50,T47D,6.79 µM (inactive)
same,GI50,KM-20L2,11.9 µM (inactive)
same,GI50,PC-3,5.09 µM (inactive)
same,GI50,SK-OV-3,10.5 µM (inactive)
same,GI50,MOLT-4,1.72 µM (inactive)
same,GI50,SNB-75,9.33 µM (inactive)
same,GI50,K562,8.07 µM (inactive)
same,GI50,786-0,4.81 µM (inactive)
same,GI50,HL-60,7.03 µM (inactive)
same,GI50,SK-MEL-28,15.1 µM (inactive)
same,GI50,HT-29,11.3 µM (inactive)
same,GI50,NCI-H226,6.27 µM (inactive)
same,GI50,IGROV-1,12.4 µM (inactive)
same,GI50,SN12C,7.21 µM (inactive)
same,GI50,Malme-3M,7.64 µM (inactive)
same,GI50,SF-268,8.11 µM (inactive)
same,GI50,U-251,8.09 µM (inactive)
same,GI50,M14,10.8 µM (inactive)
same,GI50,NCI-H522,7.38 µM (inactive)
same,GI50,SR,3.29 µM (inactive)
same,GI50,M19-MEL,8.97 µM (inactive)
same,GI50,RPMI-8226,8.07 µM (inactive)
same,GI50,COLO 205,4.38 µM (inactive)
same,GI50,DMS-114,7.08 µM (inactive)
same,GI50,SF-295,14.1 µM (inactive)
same,GI50,HOP-92,2.55 µM (inactive)
same,GI50,OVCAR-4,11.7 µM (inactive)
same,GI50,UACC-62,10.2 µM (inactive)
same,GI50,HCT-116,4.55 µM (inactive)
same,GI50,SW-620,4.88 µM (inactive)
same,GI50,OVCAR-8,5.97 µM (inactive)
same,GI50,TK-10,13.6 µM (inactive)
same,GI50,DU-145,5.81 µM (inactive)
same,GI50,HCT-15,23 µM
same,GI50,MDA-MB-435,8.51 µM (inactive)
same,GI50,OVCAR-5,12.1 µM (inactive)
same,GI50,NCI-H460,2.59 µM (inactive)
same,GI50,OVCAR-3,8.63 µM (inactive)
same,GI50,NCI/ADR-RES,156 µM (inactive)
same,GI50,ACHN,4.5 µM (inactive)
same,GI50,SF-539,7.38 µM (inactive)
same,GI50,SNB-19,10.2 µM (inactive)
same,GI50,HCC 2998,10.3 µM (inactive)
same,GI50,KM12,7.96 µM (inactive)
same,GI50,XF498,2.29 µM (inactive)
same,GI50,RXF 393,9.25 µM (inactive)
same,GI50,HOP-62,6.19 µM (inactive)
same,GI50,BT-549,10 µM (inactive)
same,GI50,DMS-273,9.38 µM (inactive)
same,GI50,SK-MEL-2,10.8 µM (inactive)
same,GI50,LOX IMVI,5.15 µM (inactive)
same,GI50,MCF7,3.66 µM (inactive)
same,GI50,NCI-H23,10.2 µM (inactive)
same,GI50,A549,7.59 µM (inactive)
same,GI50,MDA-N,10.5 µM (inactive)
same,GI50,CAKI-1,5.04 µM (inactive)
same,GI50,UACC-257,12.7 µM (inactive)
same,GI50,DLD-1,19.4 µM (inactive)
